Data set [1] has as its target fatty acid amide hydrolase (FAAH) (Rattus norvegicus (Rat), UniProt P97612). The data set can be described thus: FAAH enzyme assay: inhibition of anandamide (AEA) hydrolysis, arachidonic acid quantified by HPLC. It is filed as biochemical. The conditions noted are these: for IC50 / Ki: eight-point assay; for IC50: anandamide hydrolysis by FAAH, read-out: IC50; for Ki: calculated with Prizm software, read-out: Ki; for inhibition at 100 µM / inhibition at 0.1 µM: one-point assay, partially purified rat brain FAAH, 15 min, read-out: % Inhibition (Concentration); for inhibition at 100 µM: inhibitor 100 μM; for inhibition at 0.1 µM: inhibitor 100 nM. On the procedure: The resulting supernatant is injected onto the HPLC.

The structures appear in SMILES notation.

Chain of fatty acid amide hydrolase (FAAH) (P97612 whole entry): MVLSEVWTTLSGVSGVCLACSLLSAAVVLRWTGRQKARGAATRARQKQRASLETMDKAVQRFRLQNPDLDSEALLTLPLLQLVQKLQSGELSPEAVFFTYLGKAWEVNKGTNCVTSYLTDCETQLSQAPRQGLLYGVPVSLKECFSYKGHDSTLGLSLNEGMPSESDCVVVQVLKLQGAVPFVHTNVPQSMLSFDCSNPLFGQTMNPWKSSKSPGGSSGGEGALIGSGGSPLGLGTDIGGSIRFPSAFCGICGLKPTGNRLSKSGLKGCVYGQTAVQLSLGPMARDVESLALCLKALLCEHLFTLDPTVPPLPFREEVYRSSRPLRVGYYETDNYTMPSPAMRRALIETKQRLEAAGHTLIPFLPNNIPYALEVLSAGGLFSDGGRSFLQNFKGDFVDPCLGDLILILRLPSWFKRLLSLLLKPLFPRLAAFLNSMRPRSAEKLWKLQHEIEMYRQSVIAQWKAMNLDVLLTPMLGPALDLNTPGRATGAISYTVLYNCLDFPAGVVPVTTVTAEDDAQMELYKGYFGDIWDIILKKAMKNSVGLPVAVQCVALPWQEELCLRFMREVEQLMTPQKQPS

With `Oc1cccc(OCCCC(O)(O)C(F)(F)F)c1` (hydrate or solvate) [Compound 24.5, 1,1,1-Trifluoro-2,2-dihydroxy-5-[3-(hydroxy)phenoxy]pentane], the melting point was 76 to 77 °C.
The compound `O=S(=O)(Cl)CCCCCCCc1ccc(OCc2ccccc2)cc1` [Compound 12.1, 7-(4-Benzyloxy-phenyl)-heptanesulfonyl chloride] registered a melting point of 33 to 35 °C. Further, in data set [1], the IC50 came to 53800 nM, the inhibitory constant (Ki) is 12700 nM and the inhibition at 100 µM was determined as 99%.
The compound `O=S(=O)(F)CCCCCCCc1ccc(OCc2ccccc2)cc1` [Compound 13.1, 7-(4-Benzyloxy-phenyl)-heptanesulfonyl fluoride] yielded a melting point of 35 to 38 °C. Also, in data set [1], the inhibition at 100 µM was found to be 100%.
In the case of `O=S(=O)(F)CCCCCc1ccc(OCc2ccccc2)cc1` [Compound 13.4, 5-(4-Benzyloxy-phenyl)-pentanesulfonyl fluoride], the melting point lay in the range of 66 to 68 °C. Moreover, in data set [1], the half-inhibitory concentration (IC50) was 180 nM, the inhibition constant (Ki) was 15 nM and the inhibition at 100 µM is 97%.
Take `O=S(=O)(F)CCCCCCCc1ccc(O)cc1` [Compound 14.1, 7-(4-Hydroxy-phenyl)-heptanesulfonyl fluoride]: the melting point lay in the range of 47 to 51 °C. Further, the inhibition at 100 µM in data set [1] is 100%.
On to `O=S(=O)(F)CCCCCc1ccc(O)cc1` [Compound 14.4, 5-(4-Hydroxy-phenyl)-pentanesulfonyl fluoride], for which the melting point was 32 to 35 °C. Moreover, in data set [1], the IC50 was determined as 346 nM and the inhibition at 100 µM stood at 99%.
Compound `O=S(=O)(Cl)CCCCOc1ccccc1` [Compound 16, 4-Phenoxybutyl sulfonyl chloride] showed a melting point of 65 to 67 °C. Moreover, in data set [1], the IC50 came out at 53800 nM, the inhibitory constant (Ki) was 12700 nM and the inhibition at 100 µM was determined as 99%.
In turn, `O=S(=O)(F)CCCCOc1ccccc1` [Compound 17, 4-Phenoxybutylsulfonyl fluoride] had a melting point of 74 to 76 °C. Also, in data set [1], the half-maximal inhibitory concentration (IC50) was found to be 226 nM, the Ki was 53 nM and the inhibition at 100 µM was 100%.
Compound `COS(=O)(=O)CCCCCCCc1ccc(OCc2ccccc2)cc1` [Compound 18, 7-(4-Benzyloxy-phenyl)-heptane-1-sulfonic acid methyl ester] returned a melting point of 57 to 59 °C. Besides, in data set [1], the IC50 stood at 256 nM, the Ki is 78 nM and the inhibition at 100 µM was 93%.
Taken in the same sequence, the figures for `O=C(CCCOc1ccc(OCc2ccccc2)cc1)C(F)(F)F` [Compound 23.1, 1,1,1-Trifluoro-5-[4-(benzyloxy)phenoxy]-2-pentanone] were 59 to 61 °C, 1800 nM, 150 nM and 96%.
On to `O=C(CCCCOc1ccc(OCc2ccccc2)cc1)C(F)(F)F` [Compound 23.2, 1,1,1-Trifluoro-6-[4-(Benzyloxy)phenoxy]-2-hexanone], for which the melting point was 95.5 to 96 °C. Further, in data set [1], the 50% inhibitory concentration (IC50) amounted to 13600 nM, the inhibition constant (Ki) is 1200 nM and the inhibition at 100 µM was found to be 76%.
`O=C(CCCCCOc1ccc(OCc2ccccc2)cc1)C(F)(F)F` [Compound 23.3, 1,1,1-Trifluoro-7-[4-(Benzyloxy)phenoxy]-2-heptanone]: the melting point lay in the range of 59 to 60 °C. Further, in data set [1], the concentration for half-maximal inhibition (IC50) is 2900 nM, the inhibition constant (Ki) is 320 nM and the inhibition at 100 µM was determined as 94%.
The matching figures for `O=C(CCCCCCOc1ccc(OCc2ccccc2)cc1)C(F)(F)F` [Compound 23.4, 1,1,1-Trifluoro-8-[4-(Benzyloxy)phenoxy]-2-octanone]: 82 to 83 °C, 11800 nM, 830 nM and 88%.
Taken in the same sequence, the figures for `O=C(CCCOc1ccccc1OCc1ccccc1)C(F)(F)F` [Compound 23.8, 1,1,1-Trifluoro-5-[2-(Benzyloxy)phenoxy]-2-pentanone] were 50 to 51 °C, 34600 nM, 2280 nM and 46%.
The matching figures for `O=C(CCCCCOc1ccccc1OCc1ccccc1)C(F)(F)F` [Compound 23.10, 1,1,1-Trifluoro-7-[2-(Benzyloxy)phenoxy]-2-heptanone]: 31 to 32 °C, 7900 nM, 553 nM and 95%.
Consider `O=C(CCCCOc1ccccc1)C(F)(F)F` [Compound 23.12, 1,1,1-Trifluoro-6-phenoxy-2-hexanone], for which the melting point lay in the range of 50 to 51 °C. Also, in data set [1], the half-inhibitory concentration (IC50) was 25400 nM, the Ki was 2800 nM and the inhibition at 100 µM turned out to be 65%.
`O=C(CCCCOc1ccc(O)cc1)C(F)(F)F` [Compound 24.2, 1,1,1-Trifluoro-6-[4-(hydroxy)phenoxy]-2-hexanone] had a melting point of 63 to 64 °C. In addition, in data set [1], the concentration for half-maximal inhibition (IC50) turned out to be 23200 nM, the Ki is 2600 nM and the inhibition at 100 µM worked out at 60%.
Taken in the same sequence, the figures for `O=C(CCCCCCOc1ccc(O)cc1)C(F)(F)F` [Compound 24.4, 1,1,1-Trifluoro-8-[4-(hydroxy)phenoxy]-2-octanone] were 61 to 62 °C, 760 nM, 54 nM and 89%.
The matching figures for `O=C(CCCCOc1ccccc1O)C(F)(F)F` [Compound 24.9, 1,1,1-Trifluoro-6-[2-(hydroxy)phenoxy]-2-hexanone]: 51 to 52 °C, 23900 nM, 1600 nM and 60%.
Consider `O=C(NCCCc1ccccc1)NCc1ccccn1` [Compound 59.1, N-(3-phenylpropyl)-N′-(2-pyridinylmethyl)-urea], for which the melting point was 89 to 90 °C.
On the same count and under the same terms, with `O=C(NCCCc1ccccc1)Nc1ccccn1` [Compound 59.2, N-(3-phenylpropyl)-N′-(2-pyridinyl)-urea] the figure was 127 to 128 °C.
Regarding `Cc1nnc(C(=O)c2cccc(-c3cccc(OCc4ccccc4)c3)c2)o1` [Compound 78, 1-(3′-Benzyloxy-1,1′-biphenyl-3-yl)-1-(5-methyl-1,3,4-oxadiazol-2-yl)-ketone], the melting point fell in the range of 97 to 99 °C. Moreover, the inhibition at 100 µM in data set [1] is 56%.
As for `OC(O)(c1ccccn1)C(F)(F)CCCCOc1ccccc1` [Compound 89.9 Hydrate form], in data set [1], the IC50 is 39 nM, the Ki was 12 nM and the inhibition at 0.1 µM was 63%.
Taken in the same sequence, the figures for `O=C(c1ccccn1)C(F)(F)CCCCOc1ccccc1` [Compound 89.9, 2,2-Difluoro-6-phenoxy-1-(pyridin-2-yl)-hexan-1-one] were 77 nM, 24 nM and 52%.
Turning to `O=C(c1cccnc1)C(F)(F)CCCCOc1ccccc1` [Compound 89.10, 2,2-Difluoro-6-phenoxy-1-(pyridin-3-yl)-hexan-1-one], in data set [1], the IC50 was 164 nM, the Ki was 52 nM and the inhibition at 0.1 µM is 33%.
In the case of `O=C(c1cccnc1)C(F)(F)CCCCOc1cccc(OCc2ccccc2)c1` [Compound 89.11, 2,2-Difluoro-6-[3-(benzyloxy)phenoxy]-1-(pyridin-3-yl)-hexan-1-one], in data set [1], the concentration for half-maximal inhibition (IC50) turned out to be 24 nM, the Ki was 7 nM and the inhibition at 0.1 µM was 85%.
Regarding `Cc1nnc(C(=O)C(F)(F)CCCCOc2ccccc2)o1` [Compound 89.12], in data set [1], the IC50 was found to be 310 nM, the Ki is 100 nM and the inhibition at 0.1 µM amounted to 20%.
As to `Cc1nnc(C(=O)C(F)(F)CCCCOc2cccc(OCc3ccccc3)c2)o1` [Compound 89.13], the IC50 in data set [1] is 38 nM.
For the compound `CCOC(=O)C(=O)c1ccc(-c2ccccc2)cc1` [Compound 91.1, Ethyl 2-(biphenyl-4-yl)-2-oxoacetate], in data set [1], the IC50 is 15000 nM, the Ki is 4600 nM and the inhibition at 100 µM was 86%.
Take `CCOC(=O)C(=O)c1ccc(Br)cc1` [Compound 91.5, Ethyl 2-(4-bromophenyl)-2-oxoacetate]: the inhibition at 100 µM in data set [1] is 79%.
Turning to `Cc1nnc(C(=O)C(F)(F)c2ccc(-c3ccccc3)cc2)o1` [Compound 93.1, 2-(Biphenyl-4-yl)-2,2-difluoro-1-(5-methyl-1,3,4-oxadiazol-2-yl)ethanone], in data set [1], the concentration for half-maximal inhibition (IC50) amounted to 210 nM, the Ki is 65 nM and the inhibition at 0.1 µM amounted to 41%.
In the case of `Cc1nnc(C(=O)C(F)(F)c2ccc(Br)cc2)o1` [Compound 93.5, 2-(4-Bromophenyl)-2,2-difluoro-1-(5-methyl-1,3,4-oxadiazol-2-yl)ethanone], in data set [1], the IC50 was found to be 1670 nM, the inhibition constant Ki was 530 nM and the inhibition at 100 µM turned out to be 97%.
Consider `O=C(c1cccc(Br)n1)C(F)(F)c1ccc(-c2ccccc2)cc1` [Compound 93.7, 2-(Biphenyl-4-yl)-1-(6-bromopyridin-2-yl)-2,2-difluoroethanone], for which the inhibition at 100 µM in data set [1] was 94%.
As for `O=C(CCCCCCOc1ccccc1)C(F)(F)c1ccccn1` [Compound 96.1, 1,1-Difluoro-8-phenoxy-1-(pyridin-2-yl)octan-2-one], in data set [1], the inhibition at 100 µM was found to be 86%.
Same read-out and setting: then `O=C(c1ccc(-c2ccccc2)cc1)C(F)(F)c1ccccn1` [Compound 96.2, 1 (Biphenyl-4-yl)-2,2-difluoro-2-(pyridin-2-yl)ethanone], with 61%.

By melting point is commonly meant the temperature, or range, at which the solid turns liquid. The term IC50 denotes the concentration that inhibits the measured activity by half. By Ki is commonly meant the equilibrium dissociation constant of an inhibitor or competing ligand from its target.

These data come from patent US9102622B2 (University of Connecticut, priority 2006, dated 2015).
